Values of other authors in patent EP1941860A1, “Topical formulations” (ACO Hud Nordic AB, priority 2006, dated 2008).

Settings: in prior art formulations

concentration producing a stinging action: about 0.5 % by weight of the formulation
SMILES: CC(O)C(=O)O (stereo not shown) [lactic acid]
